Experimental data: patent EP0570197A1, “Hydroxylamine derivatives” (ZENECA LIMITED, priority 1992, dated 1993)

Key:
5-LO [1] = target: T1, 5-LO (Homo sapiens, UniProt P09917); assay: Test a): in vitro heparinised human blood challenged with calcium ionophore A23187, radioimmunoassay of LTB₄; type: cell-based; details: heparinised human blood, A23187 challenge; read-out: IC₅₀ against LTB₄ in test a)
T1 construct: incubating a test compound with heparinised human blood, prior to challenge with the calcium ionophore A23187; endogenous in cells; host or cells: human whole blood (blood cells), heparinised
T1 sequence (P09917 1-674): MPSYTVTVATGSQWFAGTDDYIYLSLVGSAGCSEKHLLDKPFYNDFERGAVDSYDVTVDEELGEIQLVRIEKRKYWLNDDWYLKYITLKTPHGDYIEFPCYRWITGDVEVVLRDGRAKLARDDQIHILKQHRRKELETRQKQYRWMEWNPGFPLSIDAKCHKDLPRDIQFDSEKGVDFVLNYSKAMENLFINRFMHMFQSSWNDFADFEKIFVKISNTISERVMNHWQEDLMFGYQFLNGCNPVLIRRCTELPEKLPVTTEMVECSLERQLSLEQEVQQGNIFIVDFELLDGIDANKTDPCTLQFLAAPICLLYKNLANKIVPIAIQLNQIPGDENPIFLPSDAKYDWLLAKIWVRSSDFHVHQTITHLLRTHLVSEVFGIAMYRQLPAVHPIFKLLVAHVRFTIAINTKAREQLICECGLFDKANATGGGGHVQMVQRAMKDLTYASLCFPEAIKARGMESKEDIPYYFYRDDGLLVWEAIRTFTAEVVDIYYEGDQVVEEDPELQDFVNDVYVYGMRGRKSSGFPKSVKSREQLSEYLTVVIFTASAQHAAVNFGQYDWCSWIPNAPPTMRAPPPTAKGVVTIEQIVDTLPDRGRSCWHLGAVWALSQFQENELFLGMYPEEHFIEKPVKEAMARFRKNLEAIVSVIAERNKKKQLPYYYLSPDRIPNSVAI
Description: As stated previously, the compounds of the formula I are inhibitors of the enzyme 5-LO. […] J. Pharmacol., 1985, 84, 34P) which involve the use of a protein-LTB₄ conjugate produced using the procedure of Young et alia (Prostaglandins, 1983, 26(4), 605-613). The effects of a test compound on the enzyme cyclooxygenase (which is involved in the alternative metabolic pathway for arachidonic acid and gives rise to prostaglandins, thromboxanes and related metabolites) may be measured at the same time using the specific radioimmunoassay for thromboxane B₂(TxB₂) described by Carey and Forder (see above). This test provides an indication of the effects of a test compound against 5-LO and also cyclooxygenase in the presence of blood cells and proteins. It permits the selectivity of the inhibitory effect on 5-LO or cyclooxygenase to be assessed. • b) An ex vivo assay system, which is a variation of test a) above, involving administration to a group of rats of a test compound (usually orally as the suspension produced when a solution of the test compound in dimethylsulphoxide is added to carboxymethylcellulose), blood collection, heparinisation, challenge with A23187 and radioimmunoassay of LTB₄ and TxB₂. This test provides an indication of the bioavailability of a test compound as an inhibitor of 5-LO or cyclooxygenase. • c) An in vivo system involving measuring the effects of a test compound administered orally against the liberation of LTB₄ induced by zymosan within an air pouch generated within the subcutaneous tissue of the back of male rats. The rats are anaesthetised and air pouches are formed by the injection of sterile air (20 ml). A further injection of air (10 ml) is similarly given after 3 days. At 6 days after the initial air injection the test compound is administered (usually orally as the suspension produced when a solution of the test compound in dimethylsulphoxide is added to hydroxypropylmethylcellulose), followed by the intrapouch injection of zymosan (lml of a 1% suspension in physiological saline). […]

5-LO [2] = assay: Test c): in vivo zymosan-induced LTB₄ liberation in a subcutaneous air pouch; parameters: species or system male rats; details: rats killed after 3 hours
Description: As stated previously, the compounds of the formula I are inhibitors of the enzyme 5-LO. […] J. Pharmacol., 1985, 84, 34P) which involve the use of a protein-LTB₄ conjugate produced using the procedure of Young et alia (Prostaglandins, 1983, 26(4), 605-613). The effects of a test compound on the enzyme cyclooxygenase (which is involved in the alternative metabolic pathway for arachidonic acid and gives rise to prostaglandins, thromboxanes and related metabolites) may be measured at the same time using the specific radioimmunoassay for thromboxane B₂(TxB₂) described by Carey and Forder (see above). This test provides an indication of the effects of a test compound against 5-LO and also cyclooxygenase in the presence of blood cells and proteins. It permits the selectivity of the inhibitory effect on 5-LO or cyclooxygenase to be assessed. • b) An ex vivo assay system, which is a variation of test a) above, involving administration to a group of rats of a test compound (usually orally as the suspension produced when a solution of the test compound in dimethylsulphoxide is added to carboxymethylcellulose), blood collection, heparinisation, challenge with A23187 and radioimmunoassay of LTB₄ and TxB₂. […]

Row | IC50 (5-LO [1]) | Compound | oral ED₅₀ versus LTB₄ in test c) (5-LO [2])
1 | 190 nM | COC1(c2cc(F)cc(Sc3ccc(C(C)ONC(C)=O)cc3)c2)CCOCC1 (stereo not drawn) [Example 2, 4-[5-fluoro-3-(4-methoxytetrahydropyran-4-yl)phenylthio]-α-methylbenzyl acetohydroxamate] | –
2 | 310 nM | COC1(c2cc(F)cc(Sc3ccc(C(C)ONC(N)=O)cc3)c2)CCOCC1 (stereo not drawn) [Example 4, N-{4-[5-fluoro-3-(4-methoxytetrahydropyran-4-yl)phenylthio]-α-methylbenzyloxy}urea] | –

Row | Compound | IC50 (5-LO [1]) | oral ED₅₀ versus LTB₄ in test c) (5-LO [2])
3 | CCN(CC)OC(C)c1ccc(Sc2cc(F)cc(C3(OC)CCOCC3)c2)cc1 (stereo not drawn) [Example 5, N,N-diethyl-O-{4-[5-fluoro-3-(4-methoxytetrahydropyran-4-yl)phenylthio]-α-methylbenzyl}hydroxylamine] | 150 nM | approximately 1.5 mg/kg
